The target in one data set is T1, human mGluR2 (Homo sapiens, UniProt Q14416).
T1 construct: expressed in transfected cells; host or cells: CHO cells, stably transfected; membranes
The data set is described as follows: [35S]-GTPγS binding assay, membranes from CHO cells stably expressing human mGluR2. The settings on record: for Emax: 0.5 h, Emax relative to the maximum glutamate effect, 1 μM glutamate, read-out: Hu GTPgS Median Top Effect; for EC50: allosteric activator activity in presence of 1 μM glutamate, CHO membranes, human mGluR2, read-out: Hu GTPgS EC50. It is filed as biochemical. Here is the method:
A [^35S]-GTPγS binding assay was used to functionally assay mGluR2 receptor activation. The allosteric activator activity of compounds at the human mGluR2 receptor were measured using a [^35S]-GTPγS binding assay with membranes prepared from CHO cells that stably express the human mGluR2. The assay is based upon the principle that agonists bind to G-protein coupled receptors to stimulate GDP-GTP exchange at the G-protein. Since [^35S]-GTPγS is a non-hydrolyzable GTP analog, it can be used to provide an index of GDP-GTP exchange and, thus, receptor activation. The GTPγS binding assay therefore provides a quantitative measure of receptor activation.
Membranes were prepared from CHO cells stably transfected with human mGluR2. Membranes (30 μg protein) were incubated with test compound (3 nM to 300 μM) for 15 minutes at room temperature prior to the addition of 1 μM glutamate, and incubated for 30 min at 30° C. in 500 μl assay buffer (20 mM HEPES, 100 mM NaCl, 10 mM MgCl2), containing 30 μM GDP and 0.1 nM [^35S]-GTPγS (1250 Ci/mmol). Reactions were carried out in triplicate in 2 ml polypropylene 96-well plates. Reactions were terminated by vacuum filtration using a Packard 96-well harvester and Unifilter-96, GF/B filter microplates. The filter plates were washed 4×1.5 ml with ice-cold wash buffer (10 mM sodium phosphate buffer, pH 7.4). The filter plates were dried and 35 μl of scintillation fluid (Microscint 20) was added to each well. The amount of radioactivity bound was determined by counting plates on the Packard TopCount. Data was analyzed using GraphPad Prism, and EC50 and Emax values (relative to the maximum glutamate effect) were calculated using non-linear regression.

Another data set concerns the target hERG ion channel (Homo sapiens, UniProt Q12809). Kind of data set: hERG activity (process of Bridgland-Taylor et al.). Format: cell-based. On the procedure:
hERG activity was assessed using the process described by Bridgland-Taylor, M. H., et al, J. Pharm. Tox. Methods 54 (2006) 189-199.

Data set [1] in a line: Solubility in pH 7.4 phosphate buffer. Format: physicochemical. To be noted: aqueous buffer, thermodynamic from solid, equilibration 24 h at 25° C., HPLC-UV and LC-MSMS. On the procedure:
Solubility was determined in pH 7.4 phosphate buffer after equilibration for 24 h at 25° C. and HPLC-UV and LC-MSMS were used for quantitation.

In brackets after ≈: the same amount, converted by molar mass. Some results are limits rather than exact numbers.

T1 sequence (Q14416 19-872): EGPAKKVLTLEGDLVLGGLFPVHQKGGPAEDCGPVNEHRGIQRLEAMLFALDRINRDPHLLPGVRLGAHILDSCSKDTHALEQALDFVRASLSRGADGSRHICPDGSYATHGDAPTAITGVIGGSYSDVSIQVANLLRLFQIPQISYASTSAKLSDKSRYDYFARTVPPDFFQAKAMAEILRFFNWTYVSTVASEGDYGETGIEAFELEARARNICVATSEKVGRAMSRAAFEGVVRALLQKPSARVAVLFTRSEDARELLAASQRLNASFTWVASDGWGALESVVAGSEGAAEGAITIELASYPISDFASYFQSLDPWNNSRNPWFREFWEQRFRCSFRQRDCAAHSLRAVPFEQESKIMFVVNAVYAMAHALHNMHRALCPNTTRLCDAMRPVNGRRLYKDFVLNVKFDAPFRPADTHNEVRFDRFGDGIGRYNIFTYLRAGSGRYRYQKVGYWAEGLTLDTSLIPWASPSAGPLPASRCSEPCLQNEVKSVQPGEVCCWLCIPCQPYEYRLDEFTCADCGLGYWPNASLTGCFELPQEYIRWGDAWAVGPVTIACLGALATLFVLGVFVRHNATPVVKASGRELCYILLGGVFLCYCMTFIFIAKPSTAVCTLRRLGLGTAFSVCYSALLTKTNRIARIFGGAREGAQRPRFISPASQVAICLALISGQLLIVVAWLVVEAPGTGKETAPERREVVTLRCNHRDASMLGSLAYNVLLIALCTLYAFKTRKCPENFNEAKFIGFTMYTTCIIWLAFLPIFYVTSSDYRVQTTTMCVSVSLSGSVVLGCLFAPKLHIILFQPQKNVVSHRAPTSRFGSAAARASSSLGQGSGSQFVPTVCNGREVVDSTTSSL
Chain of hERG ion channel (Q12809 whole entry): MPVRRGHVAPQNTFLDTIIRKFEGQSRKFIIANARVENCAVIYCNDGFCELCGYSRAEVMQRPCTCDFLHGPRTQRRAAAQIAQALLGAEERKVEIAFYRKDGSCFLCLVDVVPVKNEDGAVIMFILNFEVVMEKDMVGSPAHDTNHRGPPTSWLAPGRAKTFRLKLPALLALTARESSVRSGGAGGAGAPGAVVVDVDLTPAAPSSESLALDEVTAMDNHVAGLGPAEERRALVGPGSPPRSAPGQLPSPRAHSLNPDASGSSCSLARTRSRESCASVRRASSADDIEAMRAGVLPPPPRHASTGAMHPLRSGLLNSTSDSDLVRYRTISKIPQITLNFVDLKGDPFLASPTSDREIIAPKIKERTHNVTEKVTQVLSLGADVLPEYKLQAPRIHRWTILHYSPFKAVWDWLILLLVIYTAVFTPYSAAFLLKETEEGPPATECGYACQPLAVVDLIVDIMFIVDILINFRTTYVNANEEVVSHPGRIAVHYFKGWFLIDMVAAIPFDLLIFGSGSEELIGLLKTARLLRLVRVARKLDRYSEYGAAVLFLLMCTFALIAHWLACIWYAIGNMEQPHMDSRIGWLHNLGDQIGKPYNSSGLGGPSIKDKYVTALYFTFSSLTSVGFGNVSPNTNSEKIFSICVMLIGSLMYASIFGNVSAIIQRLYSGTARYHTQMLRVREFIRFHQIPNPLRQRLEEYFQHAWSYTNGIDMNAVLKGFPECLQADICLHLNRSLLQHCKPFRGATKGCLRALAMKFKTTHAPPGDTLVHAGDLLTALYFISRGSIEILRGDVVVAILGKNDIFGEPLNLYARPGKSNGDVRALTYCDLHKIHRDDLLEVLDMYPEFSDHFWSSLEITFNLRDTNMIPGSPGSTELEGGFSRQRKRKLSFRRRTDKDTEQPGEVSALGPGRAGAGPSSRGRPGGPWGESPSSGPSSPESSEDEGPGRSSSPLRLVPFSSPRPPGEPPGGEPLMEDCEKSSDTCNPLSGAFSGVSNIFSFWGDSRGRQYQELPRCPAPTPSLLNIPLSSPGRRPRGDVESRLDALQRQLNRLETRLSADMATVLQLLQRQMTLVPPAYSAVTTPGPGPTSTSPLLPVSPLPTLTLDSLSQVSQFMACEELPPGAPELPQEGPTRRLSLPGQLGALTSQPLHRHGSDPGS

Turning to `CC(C)N1Cc2cc(-c3cc(C(N)=O)no3)cc(Cl)c2C1=O` [Example 3], at human mGluR2, the Emax is 117% and the 50% effective concentration (EC50) came out at 214 nM. In addition, the half-maximal inhibitory concentration (IC50) on hERG ion channel was over 33000 nM. In data set [1], this molecule gave a solubility at 24 h of 21.4 µM (≈ 6.84 µg/mL).

On to `CC(C)N1Cc2cc(-c3cc(C(=O)NC4CCCC4)no3)cc(Cl)c2C1=O` [Example 14, 5-(7-Chloro-2-isopropyl-1-oxo-2,3-dihydro-1H-isoindol-5-yl)-isoxazole-3-carboxylic acid cyclopentylamide], for which, at human mGluR2, the Emax is 97% and the EC50 was 60 nM. Further, the IC50 against hERG ion channel was 19000 nM. This molecule yielded a solubility at 24 h in data set [1] of 3.53 µM (≈ 1.37 µg/mL).

With `CNC(=O)c1cc(-c2cc(C)c3c(c2)CN([C@@H](C)C2CC2)C3=O)on1` [Example 6, 5-[2-((S)-1-Cyclopropyl-ethyl)-7-methyl-1-oxo-2,3-dihydro-1H-isoindol-5-yl]-isoxazole-3-carboxylic acid methylamide], on human mGluR2, the Emax turned out to be 110% and the concentration for a half-maximal effect (EC50) turned out to be 510 nM. This molecule also yielded a concentration for half-maximal inhibition (IC50) against hERG ion channel of 23000 nM. Moreover, the solubility at 24 h in data set [1] is 17.5 µM (≈ 5.94 µg/mL).

Consider `C[C@@H](C1CC1)N1Cc2cc(-c3cc(C(=O)N(C)CCO)no3)cc(Cl)c2C1=O` [Example 19, 5-[7-Chloro-2-((S)-1-cyclopropyl-ethyl)-1-oxo-2,3-dihydro-1H-isoindol-5-yl]-isoxazole-3-carboxylic acid (2-hydroxy-ethyl)-methyl-amide], for which, at human mGluR2, the Emax amounted to 141% and the EC50 was determined as 443 nM. For the same molecule, the IC50 on hERG ion channel is over 33000 nM. For the same molecule, the solubility at 24 h in data set [1] was found to be 273 µM (≈ 110 µg/mL).

Take `Cc1cc(-c2cc(C(=O)N(C)C)no2)cc2c1C(=O)N([C@@H](C)C(F)(F)F)C2` [Example 11, 5-[7-M ethyl-1-oxo-2-((S)-2,2,2-trifluoro-1-methyl-ethyl)-2,3-dihydro-1H-isoindol-5-yl]-isoxazole-3-carboxylic acid dimethylamide]: at human mGluR2, the Emax stood at 114% and the 50% effective concentration (EC50) worked out at 66 nM. The molecule further had a 50% inhibitory concentration (IC50) on hERG ion channel of over 33000 nM. The solubility at 24 h in data set [1] was found to be 4.35 µM (≈ 1.66 µg/mL).

Take `Cc1cc(-c2cc(C(=O)N3CCNCC3)no2)cc2c1C(=O)N([C@@H](C)C1CC1)C2` [Example 16, 2-((S)-1-Cyclopropyl-ethyl)-7-methyl-5-[3-(piperazine-1-carbonyl)-isoxazol-5-yl]-2,3-dihydro-isoindol-1-one]: at human mGluR2, the Emax came out at 79% and the EC50 was determined as 664 nM. The molecule further displayed a 50% inhibitory concentration (IC50) at hERG ion channel of over 33000 nM. Also, in data set [1], the concentration in solution (solubility at 24 h) came to 435 µM (≈ 172 µg/mL).

For `CC(C)N1Cc2cc(-c3cc(C(=O)N4CCCC4)no3)cc(Cl)c2C1=O` [Example 9, 7-Chloro-2-isopropyl-5-[3-(pyrrolidine-1-carbonyl)-isoxazol-5-yl]-2,3-dihydro-isoindol-1-one], on human mGluR2, the Emax came to 101% and the EC50 came out at 37 nM. Besides, at hERG ion channel, the 50% inhibitory concentration (IC50) was over 33000 nM. For the same molecule, in data set [1], the solubility at 24 h is 3.57 µM (≈ 1.33 µg/mL).

For `CNC(=O)c1cc(-c2cc(Cl)c3c(c2)CN([C@@H](C)C2CC2)C3=O)on1` [Example 2, 5-(7-chloro-2-((S)-1-cyclopropylethyl)-1-oxo-2,3-dihydro-1H-isoindolin-5-yl)-N-methylisoxazole-3-carboxamide], the melting point was 212.3 °C. Moreover, at human mGluR2, the Emax worked out at 114% and the EC50 amounted to 600 nM. At hERG ion channel, this molecule had an IC50 of 21000 nM. In data set [1], this molecule displayed a solubility at 24 h of 6.82 µM (≈ 2.45 µg/mL).

Consider `Cc1cc(-c2cc(C(=O)N(C)C)no2)cc2c1C(=O)N([C@@H](C)C1CC1)C2` [Example 8, 5-[2-((S)-1-Cyclopropyl-ethyl)-7-methyl-1-oxo-2,3-dihydro-1H-isoindol-5-yl]-isoxazole-3-carboxylic acid dimethylamide], for which, on human mGluR2, the Emax came out at 123% and the EC50 stood at 115 nM. The half-inhibitory concentration (IC50) against hERG ion channel was over 33000 nM. The same molecule displayed a solubility at 24 h in data set [1] of 31.1 µM (≈ 11 µg/mL).

Turning to `C[C@H](N1Cc2cc(-c3cc(C(=O)N(C)C)no3)cc(Cl)c2C1=O)C(F)(F)F` [Example 17, 5-[7-Chloro-1-oxo-2-((S)-2,2,2-trifluoro-1-methyl-ethyl)-2,3-dihydro-1H-isoindol-5-yl]-isoxazole-3-carboxylic acid dimethylamide], at human mGluR2, the Emax worked out at 139% and the EC50 amounted to 84 nM. In addition, the IC50 against hERG ion channel is over 33000 nM. Further, the concentration in solution in data set [1] (solubility at 24 h) came to 15.5 µM (≈ 6.23 µg/mL).

For the molecule `CC(C)N1Cc2cc(-c3cc(C(=O)N(C)CCO)no3)cc(Cl)c2C1=O` [Example 10, 5-(7-Chloro-2-isopropyl-1-oxo-2,3-dihydro-1H-isoindol-5-yl)-isoxazole-3-carboxylic acid (2-hydroxy-ethyl)-methyl-amide], at human mGluR2, the Emax stood at 103% and the half-maximal effective concentration (EC50) was 618 nM. The concentration for half-maximal inhibition (IC50) at hERG ion channel is over 33000 nM. The concentration in solution in data set [1] (solubility at 24 h) was 54.1 µM (≈ 20.4 µg/mL).

The molecule `C[C@@H](C1CC1)N1Cc2cc(-c3cc(C(=O)N(C)C)no3)cc(Cl)c2C1=O` [Example 1, 5-(7-chloro-2-((S)-1-cyclopropylethyl)-1-oxo-2,3-dihydro-1H-isoindolin-5-yl)-N,N-dimethylisoxazole-3-carboxamide] returned a melting point of 143.5 °C. Moreover, on human mGluR2, the Emax is 127% and the EC50 was found to be 64 nM. The molecule further returned an IC50 against hERG ion channel of over 33000 nM. In data set [1], this molecule registered a solubility at 24 h of 33.4 µM (≈ 12.5 µg/mL).

(Values after patent publication US8148372B2 (AstraZeneca AB, priority 2008, dated 2012).)
